This is an account of results in ChEMBL document CHEMBL3751834, “Insight to the binding mode of triazole RGD-peptidomimetics to integrin-rich cancer cells by NMR and molecular modeling” (Bioorg Med Chem, 2016).

The source made the active and inactive calls. The calls are words filed in the database; no cut-off is given here.

The target in assay [1] is T1, Integrin alpha-V/beta-3 (Homo sapiens, UniProt P05106+P06756). Briefly: Binding affinity to integrin alphavbeta3 receptor in human ECV304 cells by STD-NMR analysis. Type of assay: cell-based. As to conditions: ECV-304.
The target in assay [2] is T1, Integrin alpha-V/beta-3. The experiment in a line: Displacement of 125-I-echistatin from human placental integrin alphavbeta3 receptor incubated for 3 hrs by microplate scintillation counting analysis.

For the molecule `N=C(N)NCCCc1cn(CC(=O)N[C@@H](CC(=O)O)c2ccc(O)cc2)nn1`, the result on Integrin alpha-V/beta-3 [1] was Active. On the same count and under the same terms, with `N=C(N)NCCCc1cn(CC(=O)N[C@@H](CC(=O)O)c2ccccc2)nn1` the entry was “Active”.

In the case of `O=C(O)C[C@H](NC(=O)Cn1cc(CCCNc2nc3ccccc3[nH]2)nn1)c1ccccc1`, the outcome on Integrin alpha-V/beta-3 [1] was Active. Also, on Integrin alpha-V/beta-3 [2], the IC50H amounted to 12 nM and the IC50L amounted to 1120 nM. The corresponding values for `O=C(O)C[C@H](NC(=O)Cn1cc(CCCNc2ccccn2)nn1)c1ccccc1` are “Active”, 13 nM and 900 nM.

Regarding `O=C(O)C[C@H](NC(=O)Cn1cc(CCCNc2nc3ccccc3[nH]2)nn1)c1ccc(O)cc1`, on Integrin alpha-V/beta-3 [1], the outcome was Active.

With `O=C(O)C[C@H](NC(=O)Cn1cc(CCCNc2ccccn2)nn1)c1ccc(O)cc1`, the outcome on Integrin alpha-V/beta-3 [1] was Active. On Integrin alpha-V/beta-3 [2], this molecule displayed a half-inhibitory concentration (IC50) of 221 nM.
